According to US6750232B2, “2-aminopyridine compounds and use thereof as drugs” (Eisai Co., Ltd., priority 2000, dated 2004):

Key:
adenosine A2a receptor = target: T1, adenosine A2a receptor (Homo sapiens, UniProt P29274); assay: Measurement of the ability to bind to adenosine A2a receptor (3H-CGS21680 binding inhibition); details: A2a receptor membrane sample, 3H-CGS21680, Cheng-Prusoff
T1 construct: purchased Receptor Biology Inc
Protocol: Measurement of the Ability to Bind to Adenosine A2a Receptor
An experiment of inhibition of binding to adenosine A2a receptor was conducted using a membrane sample (Receptor Biology Inc.) where an adenosine A2a receptor cDNA was expressed in excess. This membrane sample was added at a protein concentration of 22.2 μg/ml to, and suspended in, 20 mM HEPES buffer, pH 7.4 (10 mM MgCl2 and 100 mM NaCl). To 0.45 ml of this membrane sample suspension were added 0.025 ml of 500 nM tritium-labeled 2-p-[2-carboxyethyl]phenetylamino-5′-N-ethylarboxyamide adenosine (^3H—CGS21680, from NEN) and 0.025 ml test compound. This mixture was left at 25° C. for 90 minutes, filtered rapidly under suction through a glass fiber filter (GF/B, from Whatman), and immediately washed twice with 5 ml of 50 mM water-cooled Tris-HCl buffer. Thereafter, the glass fiber filter was transferred to a vial, a scintillator was added thereto, and the radioactivity on the filter was measured by a liquid scintillation counter. The inhibition of binding of ^3H—CGS21680 to A2a receptor by the test compound was determined using the following formula, and from this inhibition, 50% inhibition concentration (IC50) was calculated.
Inhibition (%)=[1−{binding in the presence of the test compound-nonspecific binding)/(total binding-nonspecific binding)}]×100
Here, the total binding means ^3H—CGS21680-bound radioactivity in the absence of the test compound; the nonspecific binding means ^3H—CGS21680-bound radioactivity in the presence of 100 μM RPIA; and the binding in the presence of the test compound means ^3H—CGS21680-bound radioactivity in the […] of the test compound at predetermined concentrations. The inhibition constant (Ki value) in the table was determined from the formula of Cheng-Prusoff.

[1] = target: T2, human adenosine A2b receptor (Homo sapiens, UniProt P29275); assay: Inhibition of NECA-stimulated production of cAMP in adenosine A2b receptor-expressing cells; format: cell-based; details: CHOK1 cells expressing human A2b receptor, 30 nM NECA
T2 construct: expressed in transfected cells; host or cells: CHOK1 cells
T2 sequence (P29275 1-332): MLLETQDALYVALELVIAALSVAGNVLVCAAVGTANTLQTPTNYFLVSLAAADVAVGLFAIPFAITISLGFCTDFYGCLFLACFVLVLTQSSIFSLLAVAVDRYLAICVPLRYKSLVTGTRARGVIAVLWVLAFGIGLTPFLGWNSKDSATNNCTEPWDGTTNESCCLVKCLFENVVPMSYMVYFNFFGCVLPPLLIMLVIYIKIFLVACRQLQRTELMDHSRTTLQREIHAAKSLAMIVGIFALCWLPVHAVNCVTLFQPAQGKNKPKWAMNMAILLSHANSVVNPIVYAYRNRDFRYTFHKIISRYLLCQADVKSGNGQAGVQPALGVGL
Protocol: Experiment of Inhibition of NECA-stimulated Production of cAMP in Adenosine A2b Receptor-expressing Cells
CHOK1 cells where a human adenosine A2b receptor had been expressed in excess were plated onto a 24-well plate at a density of 1.5×10^5 cells/well, cultured overnight, and used in the experiment. The degree of inhibitory effect of the test compound on the amount of cAMP produced by stimulation with 30 nM 5′-N-ethylcarboxyamide adenosine (NECA from Sigma) was evaluated in terms of affinity for A2b receptor. That is, the adhering cells were washed twice with 2 ml/well Krebs-Ringer buffer solution (containing 0.1% BSA; pH 7.4) and pre-incubated for 30 minutes in a volume of 0.5 ml/well. Then, a mixed solution containing NECA and the test compound was added in a volume of 0.1 ml/well in the presence of a phosphodiesterase inhibitor Ro-20-1724 (a product of RBI). After pre-incubation for 15 minutes, the reaction was terminated with 0.1 N HCl in a volume of 300 μl/well. Measurement of intracellular cAMP was carried out using a cAMP enzyme immunoassay kit produced by Amersham. The inhibition of NECA-stimulated production of cAMP by the test compound was determined using the following equation:
Inhibition (%)=[1−{(amount of cAMP in the coexistence of NECA and the test compound-amount of CAMP in only the Krebs-Ringer buffer solution)/(amount of CAMP upon stimulation with NECA only-amount of cAMP in only the Krebs-Ringer buffer solution)}]×100

[2] = target: T3, human adenosine A1 receptor (Homo sapiens, UniProt P30542); assay: Measurement of the ability to bind to adenosine A1 receptor (3H-CCPA binding inhibition); details: membrane of CHOK1 cells expressing human A1 receptor, Cheng-Prusoff
T3 construct: expressed in transfected cells; host or cells: CHOK1 cells (membrane sample)
T3 sequence (P30542 1-326): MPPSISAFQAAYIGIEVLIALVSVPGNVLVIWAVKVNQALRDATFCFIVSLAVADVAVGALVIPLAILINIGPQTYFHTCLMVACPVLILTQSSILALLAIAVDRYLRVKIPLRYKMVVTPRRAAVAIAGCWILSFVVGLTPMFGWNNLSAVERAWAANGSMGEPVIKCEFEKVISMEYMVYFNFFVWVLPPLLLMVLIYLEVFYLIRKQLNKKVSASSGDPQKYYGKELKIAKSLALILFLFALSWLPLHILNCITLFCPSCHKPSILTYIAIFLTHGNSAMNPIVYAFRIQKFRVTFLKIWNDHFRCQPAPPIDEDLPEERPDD
Protocol: Measurement of the Ability to Bind to Adenosine A1 Receptor
A human adenosine A1 receptor cDNA was expressed in excess in CHOK1 cells, and this membrane sample was added at a protein concentration of 66.7 μg/ml to, and suspended in, 20 mM HEPES buffer, pH 7.4 (10 mM MgCl2, 100 mM NaCl). To 0.45 ml of this membrane sample suspension were added 0.025 ml of 60 nM tritium-labeled chlorocyclopentyl adenosine (^3H—CCPA, from NEN Ltd.) and 0.025 ml test compound. This mixture was left at 30° C. for 120 minutes, filtered rapidly under suction through a glass fiber filter (GF/B, from Whatman), and immediately washed twice with 5 ml of 50 mM water-cooled Tris-HCl buffer. Thereafter, the glass fiber filter was transferred to a vial, a scintillator was added thereto, and the radioactivity on the filter was measured by a liquid scintillation counter. The inhibition of binding of ^3H—CCPA to A1 receptor by the test compound was determined using the following formula, and from this inhibition, 50% inhibition concentration (IC50) was calculated (the following equation).
Inhibition (%)=[1−{binding in the presence of the test compound-non-specific binding)/(total binding-non-specific binding)}]×100
In the above formula, the total binding means ^3H—CCPA-bound radioactivity in the absence of the test compound; the non-specific binding means ^3H—CCPA-bound radioactivity in the presence of 100 μM RPIA ([R]-[1-methyl-2-phenylethyl] adenosine); and the binding in the presence of the test compound means ^3H—CCPA-bound radioactivity in the presence of the test compound at predetermined concentrations. The inhibition constant (Ki value) in the table was determined from the formula of Cheng-Prusoff.

SD IGS rats = assay: Evaluation of defecation-promoting action; format: in vivo, rat; details: oral, 90 minutes after administration, per cage
Text: Evaluation of Defecation-Promoting Action
The defecation-promoting action of the adenosine A2b receptor-inhibiting compound which was identified by measuring the binding ability and inhibitory ability thereof to the adenosine receptor in Test Example 1, a salt thereof, a hydrate of them, or a pharmaceutical composition containing it can be evaluated on the basis of the following method. That is, SD IGS rats (6 weeks-old, from Charles River) were placed in cages (3 animals/cage) and preliminarily allowed food and water ad libitum and raised for 1 week. Then, a tared water-absorbing sheet was placed below each cage, and the animals were fasted but allowed water ad libitum throughout the experiment. After 1.5 hours, the fecal pellets were recovered from each cage and observed for abnormality before the experiment. The compound suspended or dissolved in 0.5% (w/v) methyl cellulose (MC) was orally administered in a dose of 5 ml/kg. On one hand, 0.5% (w/v) MC only was orally given to the control group. After administration of the compound, the rats were returned to the cage provided with a new water-absorbing sheet, and 90 minutes after the administration, the fecal pellets on the water-absorbing sheet were recovered from each cage, and the external appearance was observed, and then counted and weighed. The number of fecal pellets is expressed per each cage. After the fecal pellets were recovered, the water-absorbing sheet was weighed, and the weight determined by subtracting the initial weight of the water-adsorbing sheet from the weight after the experiment was regarded as the volume of urine.

T1 sequence (P29274 whole entry): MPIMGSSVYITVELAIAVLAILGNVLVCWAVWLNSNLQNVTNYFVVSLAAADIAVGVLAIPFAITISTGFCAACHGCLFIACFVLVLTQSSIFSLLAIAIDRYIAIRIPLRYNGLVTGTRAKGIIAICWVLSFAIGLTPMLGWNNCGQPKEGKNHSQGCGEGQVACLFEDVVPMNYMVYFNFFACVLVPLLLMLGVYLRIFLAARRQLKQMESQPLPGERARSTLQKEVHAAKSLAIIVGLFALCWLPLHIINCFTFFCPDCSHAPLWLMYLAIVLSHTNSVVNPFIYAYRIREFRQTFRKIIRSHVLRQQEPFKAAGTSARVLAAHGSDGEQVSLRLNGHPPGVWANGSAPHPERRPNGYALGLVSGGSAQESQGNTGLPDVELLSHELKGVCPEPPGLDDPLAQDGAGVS

“2-Amino-6-(fluorophenyl)-5-(4-pyridyl)-3-pyridinecarbonitrile [Example 2]” was tested, and the Ki (adenosine A2a receptor) was 22 nM, the IC50 [1] was 3.7 nM and the Ki [2] was 66 nM. For the same molecule, the “The number of fecal pellets” value (SD IGS rats; 1 mg/kg) was 7.80 ± 0.20 and the “The number of fecal pellets” value (SD IGS rats; 10 mg/kg) was 18.00 ± 1.30.
Work on `N#Cc1cc(-c2ccncc2)c(-c2ccco2)nc1N` [Example 1, 2-Amino-6-(2-furyl)-5-(4-pyridyl)-3-pyridinecarbonitrile] yielded a Ki (adenosine A2a receptor) of 23 nM, an IC50 [1] of 2.7 nM and a Ki [2] of 990 nM. For the same molecule, the “The number of fecal pellets” value (SD IGS rats; 1 mg/kg) was 1.75 ± 1.03, the “The number of fecal pellets” value (SD IGS rats; 3 mg/kg) was 7.25 ± 1.65 and the “The number of fecal pellets” value (SD IGS rats; 10 mg/kg) was 22.25 ± 2.93.
With `CCn1cc(-c2cc(C#N)c(N)nc2-c2ccco2)ccc1=O` [Example 5, 2-Amino-5-(1-ethyl-6-oxo-1,6-dihydro-3-pyridinyl)-6-(2-furyl)nicotinonitrile] the Ki (adenosine A2a receptor) was 7 nM, the IC50 [1] was 6.5 nM and the Ki [2] was 400 nM. For the same molecule, the “The number of fecal pellets” value (SD IGS rats; 1 mg/kg) was 7.00 ± 1.23 and the “The number of fecal pellets” value (SD IGS rats; 3 mg/kg) was 14.25 ± 3.38.
